Test results reported in patent publication US8952177B2 (Janssen Pharmaceutica NV, priority 2013, dated 2015).
Structures can show the parent of a compound that is named as a salt. Where two headings read alike, the source gives them in different places.

Assays:
human FLAP = human FLAP (Homo sapiens (Human), UniProt P20292); assay: FLAP binding assay (HTRF format); settings: read-out: FLAP Binding wild type HTRF Ki
How it was run: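 His6-tagged human FLAP in Sf-9 membranes competed against a FITC-labelled indole FLAP modulator in HTRF format; 2 h reaction, read as HTRF ratio. Ki and IC50 from averaged duplicate ratios over 2–20 runs of two plates each; parenthetical numbers give run count.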

[1] = test system: leukotriene pathway in human whole blood (LTB4); assay: Human whole blood assay (LTB4 after calcium ionophore A23187 stimulation); type: cell-based; settings: human whole blood diluted 1:1 in RPMI, 15 min pre-incubation, A23187 7 μg/mL for 30 min at 37° Celsius
How it was run: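 Heparinised human whole blood, diluted 1:1 in RPMI, was preincubated with compound for 15 min at 37° C. before stimulation with A23187 (7 μg/mL) for 30 min. Plasma LTB4 was measured by immunoassay kit and IC50 obtained by 4-parameter fit; single replicate per plate, blood from at least one donor.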

[2] = human FLAP-containing Sf-9 membranes, 25 nM HTRF ligand, 2 h, average of runs

human FLAP, sequence (P20292 whole entry): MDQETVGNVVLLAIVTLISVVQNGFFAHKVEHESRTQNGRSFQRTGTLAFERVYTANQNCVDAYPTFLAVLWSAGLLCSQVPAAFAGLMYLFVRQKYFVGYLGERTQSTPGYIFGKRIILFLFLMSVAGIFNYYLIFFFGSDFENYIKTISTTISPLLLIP

Row | SMILES | Ki (human FLAP; [2]) | IC50 ([1]; Homo sapiens) | Ki (human FLAP) | IC50 [1]
1 | Cn1ccc(COc2ccc3nc([C@H]4CCCC[C@H]4C(=O)O)n(Cc4ccc(OC(F)(F)F)cc4F)c3c2)n1 (stereo in doubt) [Example 53, (1R*,2S*)-2-(1-(2-Fluoro-4-(trifluoromethoxy)benzyl)-6-((1-methyl-1H-pyrazol-3-yl)methoxy)-1H-benzo[d]imidazol-2-yl)cyclohexanecarboxylic acid] | 3 nM | 270 nM | – | –
2 | CCC(CC)(Cc1nc2ccc(OCc3ccc(C)cn3)cc2n1Cc1ccc(Br)cc1)C(=O)O [Example 8, 2-({1-(4-Bromobenzyl)-6-[(5-methylpyridin-2-yl)methoxy]-1H-benzimidazol-2-yl}methyl)-2-ethylbutanoic acid as the TFA salt] | 10 nM | 2320 nM | – | –
3 | CCC(CC)(Cc1nc2ccc(OCc3ccc(C)cn3)cc2n1Cc1cccc(Br)c1)C(=O)O [Example 14, 2-({1-(3-Bromobenzyl)-6-[(5-methylpyridin-2-yl)methoxy]-1H-benzimidazol-2-yl}methyl)-2-ethylbutanoic acid] | 56 nM | > 10000 nM | – | –
4 | CCC(CC)(Cc1nc2ccc(OCc3ccc(C)cn3)cc2n1Cc1ccc(OC(F)(F)F)cc1)C(=O)O [Example 22, 2-Ethyl-2-({6-[(5-methylpyridin-2-yl)methoxy]-1-[4-(trifluoromethoxy)benzyl]-1H-benzimidazol-2-yl}methyl)butanoic acid] | 24 nM | 1660 nM | – | –
5 | CCC(CC)(Cc1nc2ccc(OCc3ccc(C)cn3)cc2n1Cc1ccc(OC(F)(F)F)cc1F)C(=O)O [Example 23, 2-Ethyl-2-({1-[2-fluoro-4-(trifluoromethoxy)benzyl]-6-[(5-methylpyridin-2-yl)methoxy]-1H-benzimidazol-2-yl}methyl)butanoic acid] | 18 nM | 910 nM | – | –
6 | CCC(CC)(Cc1nc2ccc(OCc3ccc(C)cn3)cc2n1Cc1ccc(OC(F)(F)F)c(Cl)c1)C(=O)O [Example 24, 2-({1-[3-Chloro-4-(trifluoromethoxy)benzyl]-6-[(5-methylpyridin-2-yl)methoxy]-1H-benzimidazol-2-yl}methyl)-2-ethylbutanoic acid] | 11 nM | > 10000 nM | – | –
7 | CCC(CC)(Cc1nc2ccc(OCc3ccn(C)n3)cc2n1Cc1ccc(OC(F)(F)F)cc1F)C(=O)O [Example 56, 2-Ethyl-2-({1-[2-fluoro-4-(trifluoromethoxy)benzyl]-6-[(1-methyl-1H-pyrazol-3-yl)methoxy]-1H-benzimidazol-2-yl}methyl)butanoic acid] | 46 nM | ~2000 nM | – | –
8 | Cc1ccc(COc2cc(F)c3nc(CC4(C(=O)O)CCCC4)n(Cc4ccc(Br)cc4)c3c2)nc1 [Example 61, 1-({1-(4-Bromobenzyl)-4-fluoro-6-[(5-methylpyridin-2-yl)methoxy]-1H-benzimidazol-2-yl}methyl)cyclopentanecarboxylic acid] | 6 nM | 2280 nM | – | –
9 | CCC(CC)(Cc1nc2c(F)cc(OCc3ccc(C)cn3)cc2n1Cc1ccc(Br)cc1)C(=O)O [Example 65, 2-({1-(4-Bromobenzyl)-4-fluoro-6-[(5-methylpyridin-2-yl)methoxy]-1H-benzimidazol-2-yl}methyl)-2-ethylbutanoic acid as the TFA salt] | 6 nM | 1120 nM | – | –
10 | CCC(CC)(Cc1nc2c(F)cc(OCc3ccc(C)cn3)cc2n1Cc1ccc(C)cc1)C(=O)O [Example 71, 2-Ethyl-2-({4-fluoro-1-(4-methylbenzyl)-6-[(5-methylpyridin-2-yl)methoxy]-1H-benzimidazol-2-yl}methyl)butanoic acid as the TFA salt] | 49 nM | 3350 nM | – | –
11 | Cc1ccc(COc2cc(F)c3nc(CC4(C(=O)O)CCCC4)n(Cc4ccc(OC(F)(F)F)cc4)c3c2)nc1 [Example 72, 1-({4-Fluoro-6-[(5-methylpyridin-2-yl)methoxy]-1-[4-(trifluoromethoxy)benzyl]-1H-benzimidazol-2-yl}methyl)cyclopentanecarboxylic acid as the TFA salt] | – | – | 60 nM | 1930 nM
12 | Cc1ccc(Cn2c(CC3(C(=O)O)CCCC3)nc3c(F)cc(OCc4ccc(C)cn4)cc32)cc1 [Example 73, 1-({4-Fluoro-1-(4-methylbenzyl)-6-[(5-methylpyridin-2-yl)methoxy]-1H-benzimidazol-2-yl}methyl)cyclopentanecarboxylic acid as the TFA salt] | 52 nM | 3250 nM | – | –
13 | CCC(CC)(Cc1nc2ccc(OCc3ccc(C)cn3)cc2n1Cc1ccc(OC(F)(F)F)cc1C)C(=O)O [Example 105] | 40 nM | 6250 nM | – | –
14 | Cc1cnc(COc2ccc3nc(CC(C)(C)C(=O)O)n(Cc4ccc(Br)cc4)c3c2)c(F)c1 [Example 128, 3-{1-(4-Bromobenzyl)-6-[(3-fluoro-5-methylpyridin-2-yl)methoxy]-1H-benzimidazol-2-yl}-2,2-dimethylpropanoic acid] | 8.5 nM | 1320 nM | – | –
15 | Cc1cnc(COc2ccc3nc(CC(C)(C)C(=O)O)n(Cc4ccc(-c5ccc(C(F)(F)F)cc5)cc4F)c3c2)c(F)c1 [Example 141, 3-(6-[(3-Fluoro-5-methylpyridin-2-yl)methoxy]-1-{[3-fluoro-4′-(trifluoromethyl)biphenyl-4-yl]methyl}-1H-benzimidazol-2-yl)-2,2-dimethylpropanoic acid] | 5.1 nM | 760 nM | – | –

The next lines start with results.

Row | Ki (human FLAP; [2]) | IC50 ([1]; Homo sapiens) | SMILES | Ki (human FLAP) | IC50 [1]
16 | 24 nM | 14000 nM | Cc1ccc(COc2cc(Cl)c3nc(CC4(C(=O)O)CCCC4)n(Cc4ccc(Br)cc4)c3c2)nc1 [Example 78, 1-({1-(4-Bromobenzyl)-4-chloro-6-[(5-methylpyridin-2-yl)methoxy]-1H-benzimidazol-2-yl}methyl)cyclopentanecarboxylic acid] | – | –
17 | 85 nM | ~20000 nM | Cc1ccc(COc2cc(Cl)c3nc(CC(C)(C)C(=O)O)n(Cc4ccc(Br)cc4)c3c2)nc1 [Example 79, 3-{1-(4-Bromobenzyl)-4-chloro-6-[(5-methylpyridin-2-yl)methoxy]-1H-benzimidazol-2-yl}-2,2-dimethylpropanoic acid] | – | –
18 | ~250 nM | 1440 nM | CCC(CC)(Cc1nc2ccc(OCc3ccn(C)n3)cc2n1Cc1ccc(OC(F)(F)F)cc1C)C(=O)O [Example 92] | – | –
19 | 160 nM | 2120 nM | Cc1ccc(Cn2c(CC(C)(C)C(=O)O)nc3ccc(OCc4ncc(C)cc4F)cc32)c(F)c1 [Example 127, 3-{1-(2-Fluoro-4-methylbenzyl)-6-[(3-fluoro-5-methylpyridin-2-yl)methoxy]-1H-benzimidazol-2-yl}-2,2-dimethylpropanoic acid] | – | –
20 | 15 nM | 840 nM | Cc1cnc(COc2ccc3nc(CC(C)(C)C(=O)O)n(Cc4c(F)cc(Br)cc4F)c3c2)c(F)c1 [Example 130, 3-{1-(4-Bromo-2,6-difluorobenzyl)-6-[(3-fluoro-5-methylpyridin-2-yl)methoxy]-1H-benzimidazol-2-yl}-2,2-dimethylpropanoic acid] | – | –
21 | 24 nM | 3930 nM | Cc1cnc(COc2ccc3nc(CC(C)(C)C(=O)O)n(Cc4ccc(OC(F)(F)F)cc4F)c3c2)c(F)c1 [Example 131, 3-{6-[(3-Fluoro-5-methylpyridin-2-yl)methoxy]-1-[2-fluoro-4-(trifluoromethoxy)benzyl]-1H-benzimidazol-2-yl}-2,2-dimethylpropanoic acid] | – | –
22 | 0.64 nM | 480 nM | CCC(CC)(Cc1nc2ccc(OCc3ncc(C)cc3F)cc2n1Cc1ccc(Br)cc1)C(=O)O [Example 136, 2-({1-(4-Bromobenzyl)-6-[(3-fluoro-5-methylpyridin-2-yl)methoxy]-1H-benzimidazol-2-yl}methyl)-2-ethylbutanoic acid] | – | –
23 | 7.4 nM | 980 nM | Cc1cnc(COc2ccc3nc(CC(C)(C)C(=O)O)n(Cc4ccc(-c5ccc(C(F)(F)F)cc5)cc4)c3c2)c(F)c1 [Example 142, 3-(6-[(3-Fluoro-5-methylpyridin-2-yl)methoxy]-1-{[4′-(trifluoromethyl)biphenyl-4-yl]methyl}-1H-benzimidazol-2-yl)-2,2-dimethylpropanoic acid] | – | –
24 | 13 nM | 1820 nM | Cc1cnc(COc2ccc3nc(CC(C)(C)C(=O)O)n(Cc4cccc(-c5ccc(C(F)(F)F)cc5)c4)c3c2)c(F)c1 [Example 143, 3-(6-[(3-Fluoro-5-methylpyridin-2-yl)methoxy]-1-{[4′-(trifluoromethyl)biphenyl-3-yl]methyl}-1H-benzimidazol-2-yl)-2,2-dimethylpropanoic acid] | – | –
25 | 36 nM | 3880 nM | CCC(CC)(Cc1nc2ccc(OCc3ccc(C)cn3)cc2n1Cc1cccc(-c2ccc(C(F)(F)F)cc2)c1)C(=O)O [Example 149, 2-ethyl-2-((6-((5-methylpyridin-2-yl)methoxy)-1-((4′-(trifluoromethyl)-[1,1′-biphenyl]-3-yl)methyl)-1H-benzo[d]imidazol-2-yl)methyl)butanoic acid] | – | –
26 | 3 nM | 560 nM | CCC(CC)(Cc1nc2ccc(OCc3ncc(C)cc3F)cc2n1Cc1ccc(N2CCC(C)CC2)cc1)C(=O)O [Example 180, 2-Ethyl-2-({6-[(3-fluoro-5-methylpyridin-2-yl)methoxy]-1-[4-(4-methylpiperidin-1-yl)benzyl]-1H-benzimidazol-2-yl}methyl)butanoic acid] | – | –
27 | 5.2 nM | 48 nM | CCC(CC)(Cc1nc2ccc(OCc3ncc(C)cc3F)cc2n1Cc1ccc(N2CCC(C)CC2)cc1F)C(=O)O [Example 181, 2-Ethyl-2-({1-[2-fluoro-4-(4-methylpiperidin-1-yl)benzyl]-6-[(3-fluoro-5-methylpyridin-2-yl)methoxy]-1H-benzimidazol-2-yl}methyl)butanoic acid] | – | –
